Assays:
MPTP-lesioned marmosets [1] = assay: Motor activity (passive infra-red sensors: total activity, high activity counts and time) in MPTP-lesioned marmosets; assay type: in vivo, common marmosets (Callithrix jacchus)
Experimental: (§1) Six common marmosets (Callithrix jacchus; female; weight, 350-500 g (Harlan, Madison, Wis., USA)) were kept under conditions of controlled temperature (25±2° C.) and a 12-hour light/dark cycle (lights on 6:30 a.m.). Animals were group housed and had access to food, fresh-fruit supplements and water ad libitum and their home cage environment was enriched with primate toys, perches and auditory stimuli. Prior to start of studies, animals were acclimatized to handling, blood collection and administration of treatments (oral syringe feeding and subcutaneous injection) as well as transfer to observation cages for assessment of behavior. A parkinsonian syndrome was induced by once-daily subcutaneous administration of MPTP hydrochloride (Sigma, Canada; 2 mg/kg base concentration in 0.9% saline) for 5 consecutive days. Following this, animals were allowed to recover for 12 weeks to allow parkinsonian symptoms to develop and stabilize. […] Treatment-related complications including dyskinesia and psychosis-like behaviors were evoked by twice-daily treatment with L-DOPA p.o. (as Prolopa®, Roche Canada, Ontario, equivalent to 15 mg/kg L-DOPA and 3.5 mg/kg benserazide) for a minimum of 30 days. […] Disord. 21:839-846; Visanji et al. (2008) Mov. Disord. 23:1922-1925; Visanji et al (2009) Neurobiol Dis. 35: 184-192]. After this time, the animals were used in several studies to evaluate potential anti-parkinsonian and anti-dyskinetic agents. A minimum period of two weeks was allowed between completing any prior study and commencing this study, a period in excess of ten half-lives since administration of any previously employed experimental drug. Throughout the course of the study, on days not requiring plasma sampling or behavioral observations, animals were treated once daily with oral L-DOPA therapy, given at 10:00 a.m. to maintain stable levels of complications. Marmosets treated with MPTP as described in this example are referred to as MPTP-lesioned marmosets.
(§2) To assess the effect of treatment on plasma FAAH substrate level, total activity, high activity time and count, data were analyzed using a parametric repeated-measures (RM) 1-way analysis of variance (ANOVA) followed by a Student Newman-Keuls Multiple Comparison post hoc test. To assess the effect of treatment on plasma L-DOPA level a paired, two-tailed t-test was used. All FAAH (AEA, OEA, PEA) subbstrate and L-DOPA plasma level data and activity data are presented as the group mean and SEM For measures of parkinsonian disability, dyskinesia and psychosis, data were analyzed via Friedman's test with Dunn's Multiple Comparison post hoc test. […] In all cases, p<0.05 was taken to represent a significant difference.
(§3) MPTP hydrochloride (Sigma, Canada) was dissolved in 0.9% NaCl sterile solution to a concentration of 0.2 mg/ml (freebase) and administered at 1 ml/kg. Maintenance L-DOPA, administered as Prolopa® capsules (Roche, Mississauga, ON, Canada) containing 50 mg L-DOPA and 12.5 mg benserazide (freebase) was dissolved in Gatorade sports beverage (The Gatorade Company, Chicago, Ill.) prior to oral administration by syringe at a volume of 10 ml/kg. On days of behavioral assessment, L-DOPA (20 mg/kg, freebase) was prepared from the methyl ester form (Sigma, Canada) in combination with benserazide hydrochloride (5 mg/kg, freebase, Sigma, Canada) dissolved in 0.9% sterile saline containing 0.1% ascorbate (Sigma, Canada) and 0.05% absolute ethanol. URB597 (Cayman Chemical, Ann Arbor, Mich.) was formulated in a vehicle containing 50% corn oil (Professional Compounding Centers of America (PCCA), Houston, Tex.) and 50% nutritional drink Ensure™ (Abbott Nutrition, Chicago, Ill.) to make the suspension palatable for marmoset oral dosing. Requisite amounts of URB597 were weighed into sterile 50 ml polypropylene tubes (for the 3, 10, 30 and 60 mg/kg doses, 12, 40, 120 and 240 mg were weighed respectively). Then, 10 ml Corn oil was added and mixed until homogenous.

MPTP-lesioned marmosets [2] = assay: Rating of parkinsonian disability, dyskinesia and psychosis in MPTP-lesioned marmosets; assay type: in vivo, common marmosets (Callithrix jacchus)
Experimental: as §1, §2, §3

MPTP-lesioned macaques = assay: Motor activity (total activity, high activity time and counts) in MPTP-lesioned macaques treated with URB597 and L-DOPA; assay type: in vivo, cynomolgus monkeys (Macaca fascicularis)
[3] = URB597 10 mg/kg p.o. + L-DOPA 20 mg/kg s.c., 2-4 h, p<0.05
[4] = URB597 10 mg/kg p.o. + L-DOPA 20 mg/kg s.c., 2-4 h, p>0.05
[5] = URB597 10 mg/kg p.o. given alone (vehicle s.c.), p>0.05
[6] = URB597 10 mg/kg p.o. + L-DOPA 20 mg/kg s.c., 2-4 h, p>0.05 cf. L-DOPA alone

For `NC(=O)c1cccc(-c2cccc(OC(=O)NC3CCCCC3)c2)c1` [URB597], the “reduction of L-DOPA-induced total activity compared to L-DOPA alone” value (MPTP-lesioned marmosets [1]; [3]) was 32%, the “reduction of high activity counts evoked by L-DOPA” value (MPTP-lesioned marmosets [1]; [3]) was 52% and the “reduction of high activity time evoked by L-DOPA” value (MPTP-lesioned marmosets [1]; [3]) was 48%. The “high activity counts and high activity time compared to normal, unlesioned animals” value (MPTP-lesioned marmosets [1]; [4]) was “not significantly different”, the “total activity relative to normal, un-lesioned animals” value (MPTP-lesioned marmosets [1]; [4]) was 119 % of normal and the “time after which total activity counts were no longer significantly different compared to vehicle (s.c.)-treated animals” value (MPTP-lesioned marmosets [1]; URB597 10 mg/kg p.o. + L-DOPA 20 mg/kg s.c., 6 h time course) was 2.5 h. The “effect on total activity and high activity cf. vehicle” value (MPTP-lesioned marmosets [1]; [5]) was “did not modify”, the total activity counts (MPTP-lesioned marmosets [1]; URB597 10 mg/kg p.o. in combination with L-DOPA 20 mg/kg s.c., 2-4 h, mean±SEM, n=6) was 1879±332 counts and the level of psychosis (MPTP-lesioned marmosets [2]; URB597 10 mg/kg p.o. + L-DOPA 20 mg/kg s.c., 2-4 h) was “mild to moderate”. The “effect of URB597 on L-DOPA-induced dyskinesia” value (MPTP-lesioned marmosets [2]; [6]) was “did not modify”, the “effect of URB597 on L-DOPA-induced psychosis” value (MPTP-lesioned marmosets [2]; [6]) was “did not modify” and the “effect of URB597 on anti-parkinsonian actions of L-DOPA” value (MPTP-lesioned marmosets [2]; [6]) was “did not modify”. The “dyskinesia score (median)” value (MPTP-lesioned marmosets [2]; URB597 10 mg/kg p.o. + L-DOPA 20 mg/kg s.c., summed 2-4 h, IQR 13-29, n=6) was 18, the “parkinsonian disability score (median)” value (MPTP-lesioned marmosets [2]; URB597 10 mg/kg p.o. + L-DOPA 20 mg/kg s.c., summed 2-4 h, maximum 432, IQR 65-114, n=6) was 78 and the “effect on parkinsonian disability, dyskinesia or psychosis cf. vehicle” value (MPTP-lesioned marmosets [2]; [5]) was “did not modify”. For the same molecule, the “total activity counts, high activity time and high activity counts compared to normal macaques” value (MPTP-lesioned macaques; L-DOPA/URB597 (0.1 ml/kg as printed, i.v.), between 2 and 3 h after L-DOPA) was “significantly higher” and the “total activity and high activity count compared to L-DOPA alone treatment” value (MPTP-lesioned macaques; URB597 0.3 mg/ml (so in the source) i.v. + L-DOPA p.o., 2-3 h post L-DOPA, p<0.05) was “significantly lower”.
